Data reported in patent US20120190666A1, “Heteroaryl Compounds as PIKK Inhibitors” (Amgen Inc., priority 2009, published 2012).

Legend:
[1] = test system: phosphorylation of Akt at Serine 473 in U87 MG cells; test: pAkt AlphaScreen (U87 cell); type: cell-based; settings: Homo sapiens, U-87 MG, 2 h; pAkt at Serine 473, U87 MG cells, two hours with compound
Procedure: The pAkt AlphaScreen® assay (PerkinElmer, Waltham, Mass.) determines whether there is phosphorylation of Akt at Serine 473 by recruitment of a phosphospecific antibody. This assay was performed using U87 MG cells. The U87 growth media consists of MEM (Gibco, Carlsbad, Calif.) supplemented with 10% FBS (Gibco), 1× Non-Essential Amino Acids (Gibco,) and 1× Penicillin/Streptomycin/Glutamine (Gibco). The cells were maintained weekly using 0.05% Trypsin (Gibco) and replated in 150 mm TC— Treated Culture Dishes (Corning, Corning, N.Y.).
The first day of the assay, the adherent cells were trypsinized, media was added to the loose cells and cells were mixed to a homogenous mixture. 0.5 ml of the homogenous mixture was counted on the Beckman Coulter® Vi-Cell™ XR (Fullerton, Calif.). 50 frames of cells were counted and the number of viable cells was determined. The cells were then diluted to 0.25 million cells per ml, and centrifuged at 200 rcf for 5 minutes. The media was removed and the cells were reconstituted in fresh media for plating. The cells were plated at 20 μl per well on the PerkinElmer® FlexDrop PLUS in Low Volume 384 Well White Tissue Culture Plates (Corning) with a final cell density of 5K cells per well. The plates were incubated overnight at 37° Celsius, 5% CO2.
On the second day, the compound plates were prepared, the cells were treated with compound and the pAkt reaction mix was added to the cell lysate. 384 well compound plates were prepared containing 1 μl of compound per well starting at 5 mM and diluted 1:2 across the row, resulting in a 22 well serial dilution. 39 μl of growth media was added to the compound plate in rows 1-22 using the PerkinElmer® FlexDrop PLUS resulting in a DMSO concentration of 2.5%. The cell plates and diluted compound plates were put onto the VELOCITY11™ VPREP™ 384 ST where the compound plate was mixed and 5 μl of serially diluted compound or controls was added to the cell plate. The final concentration of the compounds was 25 μM serially diluted to 11.9 pM in 0.5% DMSO.
The cell plates were then incubated with compound for two hours at 37° C., 5% CO2. After two hours, the media in the cell plates was aspirated using the BioTek® ELx405HT plate washer (Winooski, Vt.) removing the majority of media and compound without disturbing the adherent U87 cells. The following assay reagents are components of the SureFire® Akt (Ser 473) Phosphorylation 50K Point Kit (TGR BioSciences, Adelaide, Austalia) and an IgG Detection Kit (PerkinElmer, Waltham, Mass.). 5 μl of 1× Lysis Buffer was added to each well using the PerkinElmer® FlexDrop PLUS. The plates were then incubated at room temperature on a shaker for ten minutes. The AlphaScreen® reaction was prepared under low light conditions (subdued or green light) including p-Aid (Ser 473) Reaction Buffer, Dilution Buffer, Activation Buffer, Acceptor Beads and Donor Beads at a ratio of 40:20:10:1:1 respectively. The AlphaScreen® reaction was added to the cell lysate at 6 μl per well using the PerkinElmer® FlexDrop PLUS. The plates were placed in a humid environment to reduce edge effects and incubated overnight at room temperature with restricted air flow in the dark.
On the final day of the experiment, the plates were read on the PerkinElmer® EnVision™ 2103 Multilable Reader using the standard AlphaScreen® readout. The POC is calculated and the data is analyzed to report the IC50 IP for pAkt at Serine 473.
Activity data for the compounds tested in the PI3K cell based Akt assay is provided in Table 1 under the column heading U87

mTOR = mTOR (Homo sapiens, UniProt P42345); test: mTOR LanthaScreen (TR-FRET, phosphorylation of 4EBP1); type: biochemical; settings: phosphorylation of GFP-4E-BP1, 10 μM ATP, 90 minutes
Procedure: The mTOR LanthaScreen is a TR-FRET assay measuring the phosphorylation of mTOR's substrate 4EBP1. 384 well compound plates were prepared containing 1 μl of compound per well starting at 5 mM and diluted 1:2 across the row, resulting in a 22 well serial dilution. 24 μl of assay buffer (Invitrogen, PV4794) with 2 mM DTT was added to the compound plate in rows 1-24 using the VELOCITY 11™ VPREP™ 384 ST resulting in a DMSO concentration of 4%. The compound plate was mixed and 2.5 μl of serially diluted compound or controls was added to the assay plate (Costar, 3658).
The assay was conducted on the PerkinElmer® FlexDrop PLUS. A 5 μl mix of 800 nM GFP-4E-BP1 (Invitrogen, PV4759) and 20 μM ATP (Amgen) was added to rows 1-24. 2.5 μl of 0.6 μg/ml of mTOR Enzyme (Amgen) was added to rows 1-23. 2.5 μl of assay buffer was added to row 24 for the low control. The final concentration of the compounds was 50 μM serially diluted to 23.84 pM in 1% DMSO. […] The final concentrations in the assay reagents were 400 nM GFP-4E-BP1, 10 μM of ATP and 0.15 μg/ml of mTOR enzyme. The compound, enzyme, and substrate were incubated for 90 minutes. At this point, 10 μl of stop solution was added (20 mM Tris, pH 7.5 (Invitrogen, 15567-027), 0.02% Sodium Azide (Teknova, S0208), 0.01% NP-40 (Roche, 11754599001), 20 mM EDTA (Invitrogen, 15575-038) and 4 nM of Tb-anti-p4E-BP1 (Invitrogen, PV4758)) for a final concentration of 2 nM of Tb-anti-p4E-BP1.
Sixty minutes later the plates were read on the PerkinElmer® EnVision™ 2103 Multilable Reader using the Excitation filter 340 nm and the Emission filters 520 nm and 495 nm.

SMILES: Cc1nc(N)nc(-c2c(Nc3cc[nH]n3)nc3ccccn23)n1 [Cpd 1, 3-(4-amino-6-methyl-1,3,5-triazin-2-yl)-N-(1H-pyrazol-3-yl)imidazo[1,2-a]pyridin-2-amine]
- IC50 [1]: 20 nM
- IC50 (mTOR): 12 nM

SMILES: Cc1nc(-c2c(Nc3cccc(O)c3)nc3ccccn23)c2nc[nH]c2n1 [Cpd 2]
- IC50 [1]: 50 nM
- IC50 (mTOR): 24 nM

SMILES: CNc1nc(C)nc(-c2c(Nc3cc[nH]n3)nc3ccccn23)n1 [Cpd 3, 3-(4-methyl-6-(methylamino)-1,3,5-triazin-2-yl)-N-(1H-pyrazol-3-yl)imidazo[1,2-a]pyridin-2-amine]
- IC50 [1]: 50 nM
- IC50 (mTOR): 53 nM

SMILES: Cc1nc(N)cc(-c2c(Nc3cc[nH]n3)nc3cccnn23)n1 [Cpd 7, 3-(6-amino-2-methylpyrimidin-4-yl)-N-(1H-pyrazol-3-yl)imidazo[1,2-b]pyridazin-2-amine]
- IC50 [1]: 20 nM
- IC50 (mTOR): 11 nM

SMILES: Cc1nc(N)cc(-n2nc(C(=O)Nc3cccnc3)cc2Nc2ccn[nH]2)n1 [Cpd 11, 5-(1H-pyrazol-5-ylamino)-1-(6-amino-2-methylpyrimidin-4-yl)-N-(pyridin-3-yl)-1H-pyrazole-3-carboxamide]
- IC50 [1]: 600 nM
- IC50 (mTOR): 820 nM

SMILES: Cc1nc(N)cc(-n2nc(C(=O)N3CCOCC3)cc2Nc2ccn[nH]2)n1 [Cpd 13, (5-(1H-pyrazol-5-ylamino)-1-(6-amino-2-methylpyrimidin-4-yl)-1H-pyrazol-3-yl)(morpholino)methanone]
- IC50 [1]: 280 nM
- IC50 (mTOR): 100 nM

SMILES: CNC(=O)c1cc(Nc2ccn[nH]2)n(-c2cc(N)nc(C)n2)n1 [Cpd 14, 5-(1H-pyrazol-5-ylamino)-1-(6-amino-2-methylpyrimidin-4-yl)-N-methyl-1H-pyrazole-3-carboxamide]
- IC50 [1]: 440 nM
- IC50 (mTOR): 120 nM

SMILES: CCOC(=O)c1cc(Nc2cc[nH]n2)n(-c2cc(N)nc(C)n2)n1 [Cpd 15, ethyl 5-(1H-pyrazol-3-ylamino)-1-(6-amino-2-methylpyrimidin-4-yl)-1H-pyrazole-3-carboxylate]
- IC50 [1]: 110 nM
- IC50 (mTOR): 144 nM

SMILES: Cc1nc(N)cc(-n2nc(C(=O)NC3CC3)cc2Nc2cc[nH]n2)n1 [Cpd 16, 5-(1H-pyrazol-5-ylamino)-1-(6-amino-2-methylpyrimidin-4-yl)-N-cyclopropyl-1H-pyrazole-3-carboxamide]
- IC50 [1]: 350 nM
- IC50 (mTOR): 380 nM

SMILES: Cc1cc(Nc2cc[nH]n2)n(-c2cc(N)nc(C)n2)n1 [Cpd 18, 6-(5-(1H-pyrazol-3-ylamino)-3-methyl-1H-pyrazol-1-yl)-2-methylpyrimidin-4-amine]
- IC50 [1]: 710 nM
- IC50 (mTOR): 860 nM

SMILES: COc1ccc(Nc2cc(C)nn2-c2cc(N)nc(C)n2)cn1 [Cpd 24, 6-(5-(6-methoxypyridin-3-ylamino)-3-methyl-1H-pyrazol-1-yl)-2-methylpyrimidin-4-amine]
- IC50 [1]: 870 nM
- IC50 (mTOR): > 50000 nM

SMILES: Cc1nc(Nc2ccccc2F)cc(-c2c(Nc3cc[nH]n3)nc3cccnn23)n1 [Cpd 31, 3-(6-((2-fluorophenyl)amino)-2-methyl-4-pyrimidinyl)-N-1H-pyrazol-3-ylimidazo[1,2-b]pyridazin-2-amine]
- IC50 [1]: 790 nM
- IC50 (mTOR): 6180 nM

SMILES: COc1ccc(Nc2cc(-c3c(Nc4cc[nH]n4)nc4cccnn34)nc(C)n2)cc1 [Cpd 33]
- IC50 [1]: 290 nM
- IC50 (mTOR): 2840 nM

SMILES: Cc1nc(Nc2cccnn2)cc(-c2c(Nc3ccn(C)n3)nc3cccnn23)n1 [Cpd 34, N-(1-methyl-1H-pyrazol-3-yl)-3-(2-methyl-6-(3-pyridazinylamino)-4-pyrimidinyl)imidazo[1,2-b]pyridazin-2-amine]
- IC50 [1]: 60 nM
- IC50 (mTOR): 440 nM

SMILES: Cc1nc(Nc2ccc(N3CCN(C)CC3)nn2)cc(-c2c(Nc3cc[nH]n3)nc3cccnn23)n1 [Cpd 35, 3-(2-methyl-6-((6-(4-methyl-1-piperazinyl)-3-pyridazinyl)amino)-4-pyrimidinyl)-N-1H-pyrazol-3-ylimidazo[1,2-b]pyridazin-2-amine]
- IC50 [1]: 70 nM
- IC50 (mTOR): 10 nM

SMILES: CCNC(=O)Nc1ccc(Nc2nc3ccccn3c2-c2cc(N)nc(C)n2)cc1 [Cpd 40, 1-(4-((3-(6-amino-2-methyl-4-pyrimidinyl)imidazo[1,2-a]pyridin-2-yl)amino)phenyl)-3-ethylurea]
- IC50 [1]: 60 nM
- IC50 (mTOR): 10 nM

SMILES: Cc1nc(N)cc(-c2c(Nc3ccc4cc[nH]c4n3)nc3ccccn23)n1 [Cpd 41, 3-(6-amino-2-methyl-4-pyrimidinyl)-N-1H-pyrrolo[2,3-b]pyridin-6-ylimidazo[1,2-a]pyridin-2-amine]
- IC50 [1]: 400 nM
- IC50 (mTOR): 400 nM

SMILES: Cc1nc(Nc2ccc(N3CCOCC3)nn2)cc(-c2c(Nc3cc[nH]n3)nc3ccccn23)n1 [Cpd 49, 3-(2-methyl-6-((6-(4-morpholinyl)-3-pyridazinyl)amino)-4-pyrimidinyl)-N-1H-pyrazol-3-ylimidazo[1,2-a]pyridin-2-amine]
- IC50 [1]: 60 nM
- IC50 (mTOR): 80 nM

SMILES: COCCOc1cnnc(Nc2cc(-c3c(Nc4ccc(NC(C)=O)cc4)nc4cccnn34)nc(C)n2)c1 [Cpd 53, N-(4-((3-(6-((5-(2-methoxyethoxy)-3-pyridazinyl)amino)-2-methyl-4-pyrimidinyl)imidazo[1,2-b]pyridazin-2-yl)amino)phenyl)acetamide]
- IC50 [1]: 10 nM
- IC50 (mTOR): 1 nM

SMILES: Cc1nc(N)cc(-c2c(Nc3ccc(NC(=O)Nc4ccncc4)cc3)nc3ccccn23)n1 [Cpd 57, 1-(4-((3-(6-amino-2-methyl-4-pyrimidinyl)imidazo[1,2-a]pyridin-2-yl)amino)phenyl)-3-(4-pyridinyl)urea]
- IC50 [1]: 70 nM
- IC50 (mTOR): 10 nM

SMILES: Cc1nc(Nc2cc(OCC(F)(F)F)cnn2)cc(-c2c(Nc3cc[nH]n3)nc3cccnn23)n1 [Cpd 60, 3-(2-methyl-6-((5-(2,2,2-trifluoroethoxy)-3-pyridazinyl)amino)-4-pyrimidinyl)-N-1H-pyrazol-3-ylimidazo[1,2-b]pyridazin-2-amine]
- IC50 [1]: 20 nM
- IC50 (mTOR): 10 nM

SMILES: CC(=O)Nc1cc(-c2c(Nc3ccn(C)n3)nc3c(F)cccn23)nc(C)n1 [Cpd 63, N-(6-(8-fluoro-2-((1-methyl-1H-pyrazol-3-yl)amino)imidazo[1,2-a]pyridin-3-yl)-2-methyl-4-pyrimidinyl)acetamide]
- IC50 [1]: 50 nM
- IC50 (mTOR): 60 nM
